{C7NH2-Cpd13} = 6-amino-2-(hydroxymethyl)hexyl phosphate carrying Compound 13; {C6NH2-Cpd13} = 6-aminohexyl phosphate carrying Compound 13; {AmHex} = 6-amino-2-(hydroxymethyl)hexyl phosphate
Tests used:
HIV-1 protease [1] = target: T1, HIV-1 protease (Human immunodeficiency virus type 1 group M subtype B, UniProt P04585); test: HIV-1 protease enzyme kinetics with chromogenic peptide substrate; assay type: biochemical
T1 construct: made in house

HIV-1 protease [2] = target: T1, HIV-1 protease; test: ssHIV1 probe assay, HIV-1 protease directly adsorbed on solid carrier, qPCR; assay type: binding; conditions: pH 6.0
HIV-1 protease [3] = target: T1, HIV-1 protease; test: ssHIV1 probe assay, HIV-1 protease bound to immobilized polyclonal antibody, qPCR; assay type: binding
[4] = target: T2, CA-IX contained in a cell lysate of line HT-29 (Homo sapiens, UniProt Q16790); test: Bivalent ssCAbis probe assay, CA-IX from HT-29 cell lysate on M75 antibody, qPCR; assay type: binding
T2 construct: unpurified endogenous CA-IX contained in a cell lysate or in microliter volumes of serum; endogenous in cells; host or cells: HT-29
Method: (§1) Following the procedure described in the preceding examples, approximately 80 pg of CA-IX contained in a cell lysate of line HT-29 (used amount of total protein determined by Bradford assay was 1 μg) was immobilized using the M75 antibody.

Avi-PSMA [5] = target: T3, Avi-PSMA (Homo sapiens, UniProt Q04609); test: Enzyme kinetics of Avi-PSMA (HPLC, cleavage of pteroyl-bis-L-glutamate); assay type: biochemical
T3 construct: Biotinylated extracellular portion of PSMA (hereinafter called Avi-PSMA) used in the enzyme assay; made in house
T3 sequence (Q04609 44-750 limits assumed): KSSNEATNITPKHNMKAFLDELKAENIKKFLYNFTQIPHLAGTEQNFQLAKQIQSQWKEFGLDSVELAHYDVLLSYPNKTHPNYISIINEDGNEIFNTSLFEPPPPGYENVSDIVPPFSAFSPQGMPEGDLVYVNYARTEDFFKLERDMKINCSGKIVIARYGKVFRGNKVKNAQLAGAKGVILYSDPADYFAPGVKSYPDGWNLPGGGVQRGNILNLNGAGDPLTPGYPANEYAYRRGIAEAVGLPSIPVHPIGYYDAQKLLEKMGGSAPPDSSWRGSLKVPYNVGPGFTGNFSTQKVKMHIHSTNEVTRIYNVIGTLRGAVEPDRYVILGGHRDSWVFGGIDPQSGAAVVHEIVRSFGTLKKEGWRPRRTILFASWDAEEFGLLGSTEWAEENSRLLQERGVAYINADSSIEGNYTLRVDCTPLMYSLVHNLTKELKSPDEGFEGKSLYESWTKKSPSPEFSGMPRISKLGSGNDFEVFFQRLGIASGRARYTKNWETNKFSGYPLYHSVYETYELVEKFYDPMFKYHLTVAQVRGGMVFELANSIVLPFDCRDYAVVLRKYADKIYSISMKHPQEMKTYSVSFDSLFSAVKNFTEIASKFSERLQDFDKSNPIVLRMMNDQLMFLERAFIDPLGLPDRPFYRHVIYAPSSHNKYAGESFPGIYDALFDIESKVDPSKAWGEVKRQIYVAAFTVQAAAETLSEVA

CA-IX from blood serum = target: T4, CA-IX from blood serum (Homo sapiens, UniProt Q16790); test: Bivalent ssCAbis probe assay, CA-IX from blood serum on M75 antibody, qPCR; assay type: binding; conditions: CA-IX from 1 μl of blood serum
T4 construct: unpurified endogenous CA-IX contained in a cell lysate or in microliter volumes of serum; from tissue; host or cells: human blood serum
Method: as §1

Avi-PSMA [6] = target: T3, Avi-PSMA; test: PSMA catalytic activity for substrate hydrolysis by dsA3PSMA probe displacement, qPCR; assay type: biochemical; conditions: for substrate cleaved during incubation: 40 minutes
Method: Following the procedure described in section 1i, 20 pg of Avi-PSMA was immobilized to the bottom of the wells via immobilized neutravidin and subsequently incubated with the dsA3PSMA detection probe at a concentration of 35 pmol·l^−1 and simultaneously with various concentrations of the folyl-γ-L-glutamate substrate in the range of 10 nmol·l^−1 to 100 μmol·l^−1 for 40 minutes, and after washing, the amount of bound probe was determined with qPCR. […] At a concentration of 336 nmol·l^−1, 43% was cleaved, corresponding to kcat of 2.3 s^−1 and at a concentration of 1049 nmol·l^−1, 16% was cleaved, corresponding to kcat of 2.6 s^−1. Obtained kcat values are in conformity with the kcat value of 5 s^−1 obtained from enzyme kinetics as described in Section 1c.

CA-IX = CA-IX (Homo sapiens, UniProt Q16790, N346D); test: Reference enzyme kinetics of CA-IX (construct without PG domain)
[7] = first independent experiment, read-out: Ki (1)
[8] = second independent experiment, read-out: Ki (2)
[9] = initial concentration 107 nmol·l^−1
[10] = initial concentration 336 nmol·l^−1
[11] = initial concentration 1049 nmol·l^−1

Question: For COC(=O)N[C@H](C(=O)N[C@@H](Cc1ccccc1)[C@@H](O)CN(Cc1ccc(-c2ccccn2)cc1)NC(=O)[C@@H](NC(=O)OC)C(C)(C)C)C(C)(C)C [atazanavir], which Ki (HIV-1 protease [1]) is on record?
Answer: 0.024 nM

Question: What about the Ki (HIV-1 protease [2]; [7]) of the same compound?
Answer: 0.11 nM

Question: And the Ki (HIV-1 protease [2]; [8])?
Answer: 0.18 nM

Question: And the Ki (HIV-1 protease [3])?
Answer: 1.4 nM

Question: For NCCOCCOCCOCCOCCOCCC(=O)NCCCCOc1ccc(NC(=O)Nc2ccc(S(N)(=O)=O)cc2)cc1 [Compound 14, 18-oxo-23-(4-(3-(4-sulfamoylphenyl)ureido)phenoxy)-3,6,9,12,15-pentaoxa-19-azatri-cosan-1-aminium 2,2,2-trifluoroacetate], which Ki ([4]; ssCAbis probe, determined in the same way as Table 15, read-out: inhibitory constant) is on record?
Answer: 300 nM

Question: What does the source list for “iqPCR_amino: single-stranded DNA (SEQ ID NO: 1) with 3′-terminal 6-amino-2-(hydroxymethyl)hexyl phosphate modification, no ligand portion (DNA CCTGCCAGTTGAGCATTTTTATCTGCCACCTTCTCCACCAGACAAAAGCTGGAAA; DNA, 3' {AmHex}, backbone not given here)”?
Answer: inhibition at the highest concentration used (Avi-PSMA [5]; 0.5 μmol·l^−1): no inhibition observed; binding to immobilized HIV-1 protease (HIV-1 protease [3]; 100 ng of HIV-1 protease): no binding was observed

Question: Which Kd ([4]; HT-29 lysate, HEPESTC′ buffer) does the source give for “ssCAbis: bivalent probe: two molecules of Compound 13 on oligonucleotide SEQ ID NO: 7 (DNA AAACCTGCCAGTTGAGCATTTTTATCTGCCACCTTCTCCACCAGACAAAAGCTGGAAA; 5' {C6NH2-Cpd13}, 3' {C7NH2-Cpd13}, sugars by position and backbone not given here)” here?
Answer: 2.1 nM

Question: And the Kd (CA-IX from blood serum)?
Answer: 2.2 nM

Question: What does the source list for Nc1nc2ncc(CNc3ccc(C(=O)N[C@@H](CCC(=O)N[C@@H](CCC(=O)O)C(=O)O)C(=O)O)cc3)nc2c(=O)[nH]1 [folyl-γ-L-glutamate]?
Answer: kcat from enzyme kinetics (Avi-PSMA [5]; as described in Section 1c): 5 s⁻¹; kcat (Avi-PSMA [6]; [9]): 1.2 s⁻¹; substrate cleaved during incubation (Avi-PSMA [6]; [9]): 80%; kcat (Avi-PSMA [6]; [10]): 2.3 s⁻¹; substrate cleaved during incubation (Avi-PSMA [6]; [10]): 43%; kcat (Avi-PSMA [6]; [11]): 2.6 s⁻¹; substrate cleaved during incubation (Avi-PSMA [6]; [11]): 16%

Question: How did the Ki (CA-IX) turn out when NS(=O)(=O)c1ccc(NC(=O)Nc2ccc(OCCCCNC(=O)CCOCCOCCOCCOCCOCCC(=O)ON3C(=O)CCC3=O)cc2)cc1 [Compound 13, 2,5-dioxopyrrolidin-1-yl 19-oxo-24-(4-(3-(4-sulfamoylphenyl)ureido)phenoxy)-4,7,10,13,16-pentaoxa-20-azatetracosan-1-oate] was run?
Answer: ~400 nM

Question: Which results are given for Cc1cccc(C)c1OCC(=O)N[C@@H](Cc1ccccc1)[C@@H](O)C[C@H](Cc1ccccc1)NC(=O)[C@H](C(C)C)N1CCCNC1=O [lopinavir]?
Answer: Ki (HIV-1 protease [1]): 0.018 nM; Ki (HIV-1 protease [2]; [7]): 0.18 nM; Ki (HIV-1 protease [2]; [8]): 0.41 nM; Ki (HIV-1 protease [3]): 1.3 nM

Question: How did the Ki (HIV-1 protease [1]) turn out when CCC[C@@]1(CCc2ccccc2)CC(O)=C([C@H](CC)c2cccc(NS(=O)(=O)c3ccc(C(F)(F)F)cn3)c2)C(=O)O1 [tipranavir] was run?
Answer: 0.14 nM

Question: And the Ki (HIV-1 protease [2]; [7])?
Answer: 1.3 nM

Question: And the Ki (HIV-1 protease [2]; [8])?
Answer: 2.9 nM

Question: And the Ki (HIV-1 protease [3])?
Answer: 14 nM

Question: For CC(C)[C@H](NC(=O)CCOCCOCCOCCOCCOCCC(=O)NCCO)C(=O)N[C@@H](Cc1ccccc1)C[C@H](O)[C@H](Cc1ccccc1)NC(=O)OCc1cncs1 [Compound 8, thiazol-5-ylmethyl ((24S,27S,29S,30S)-27-benzyl-1,29-dihydroxy-24-isopropyl-4,22,25-trioxo-31-phenyl-7,10,13,16,19-pentaoxa-3,23,26-triazahentriacontan-30-yl)carbamate], which Ki (HIV-1 protease [1]) is on record?
Answer: 2.3 nM

Question: Cc1nc(COc2ccc(C[C@H](NC(=O)O[C@H]3CO[C@H]4OCC[C@H]43)[C@H](O)CN(CC(C)C)S(=O)(=O)c3ccc4c(c3)OCO4)cc2)cs1 [brecanavir] was tested. Which Ki (HIV-1 protease [1]) did it give?
Answer: 0.001 nM

Question: And the Ki (HIV-1 protease [2]; [7])?
Answer: 0.04 nM

Question: What about the Ki (HIV-1 protease [2]; [8]) of the same compound?
Answer: 0.05 nM

Question: What about the Ki (HIV-1 protease [3]) of the same compound?
Answer: 0.41 nM

Question: How did the Ki (Avi-PSMA [5]; Avi-PSMA, IC50 converted by Cheng-Prusoff, pH 7.4, 37° C.) turn out when O=C(O)CCC(NC(=O)NC(CCCCNC(=O)CCOCCC(=O)NCCO)C(=O)O)C(=O)O (centres unmarked) [Compound 4, 1-hydroxy-4,10,18-trioxo-7-oxa-3,11,17,19-tetraazadocosane-16,20,22-tricarboxylic acid] was run?
Answer: 3.3 nM

Question: With NCCCC[C@H](NC(=O)N[C@@H](CCC(=O)O)C(=O)O)C(=O)O [PSMA parent compound, S,S-2-[3-[5-amino-1-carboxypentyl]-ureido]-pentanedioic acid] as the compound, how does the Ki (Avi-PSMA [5]; Avi-PSMA enzyme assay) read?
Answer: 0.2 nM

— patent US10718772B2, “Method of detection of analyte active forms and determination of the ability of substances to bind into analyte active sites” (USTAV ORGANICKE CHEMIE A BIOCHEMIE AKADEMIE VED CR, V.V.I., priority 2014, dated 2020)
